In PubChem BioAssay (NCI) one finds GI50 and TGI data, which are given here for 7 molecules.

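In this assay, cells in 96-well plates receive the compound at five concentrations for 48 hours. Endpoints are linearly interpolated between the surrounding concentrations. The concentration for 50% growth inhibition is given as GI50. Definition used: TGI = concentration required for complete inhibition of growth.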

The first assay has as its system EKVX NSCLC. As to the kind of experiment: DTP human tumour cell line panel, 48 h.
`NCC(=O)NS(=O)(=O)OC[C@H]1O[C@@H](n2cnc3c(N)ncnc32)[C@H](O)[C@@H]1O`: the GI50 is 2.58 µM and the TGI is 8.88 µM.
The corresponding values for `COc1cccc(/C=N/NC(=O)c2ccccc2Nc2ccnc(C(F)(F)F)c2)c1O` are 0.517 µM and > 100 µM.
As to `Cc1ccc(CS/C(=C\c2ccc([N+](=O)[O-])cc2)C(=O)c2ccc(F)cc2)cc1`, the GI50 was 4.72 µM and the TGI came to 24 µM.
For `CN1CCN(Cc2ccc(NC(=O)c3cncc(C#Cc4cnc(N)c5ccc(C#N)cc45)c3)cc2C(F)(F)F)CC1`, in that order: 0.185 µM and 6.13 µM.
With `CCOC(=O)CCc1cc(=O)oc2cc(O)cc(O)c12`, the TGI is > 100 µM.
With `COC(=O)c1cc2c3ccccc3[nH]c2c2ncccc12`, the GI50 was 11.5 µM and the TGI was > 100 µM.
With `CNC(=O)OCc1c(COC(=O)NC)c(-c2ccc(Cl)c(Cl)c2)n2c1SCC2`, the total growth inhibition concentration (TGI) came to 72 µM.

Another assay concerns HS 578T breast. As to the kind of experiment: DTP human tumour cell line panel, 48 h.
On to `NCC(=O)NS(=O)(=O)OC[C@H]1O[C@@H](n2cnc3c(N)ncnc32)[C@H](O)[C@@H]1O`, for which the GI50 is 2.89 µM and the TGI worked out at 9.13 µM.
For `COc1cccc(/C=N/NC(=O)c2ccccc2Nc2ccnc(C(F)(F)F)c2)c1O`, in that order: 1.08 µM and > 46.7 µM.
For `Cc1ccc(CS/C(=C\c2ccc([N+](=O)[O-])cc2)C(=O)c2ccc(F)cc2)cc1`, in that order: 2.35 µM and 6.34 µM.
Regarding `CN1CCN(Cc2ccc(NC(=O)c3cncc(C#Cc4cnc(N)c5ccc(C#N)cc45)c3)cc2C(F)(F)F)CC1`, the 50% growth inhibitory concentration (GI50) was 0.0217 µM and the concentration for total growth inhibition (TGI) was 0.406 µM.
On to `CCOC(=O)CCc1cc(=O)oc2cc(O)cc(O)c12`, for which the concentration for total growth inhibition (TGI) is > 100 µM.
With `COC(=O)c1cc2c3ccccc3[nH]c2c2ncccc12`, the GI50 was 15.4 µM and the TGI is 87 µM.
Turning to `CNC(=O)OCc1c(COC(=O)NC)c(-c2ccc(Cl)c(Cl)c2)n2c1SCC2`, the TGI is 51 µM.

A further assay has as its system HT29 colon. As to the kind of experiment: DTP human tumour cell line panel, 48 h.
`NCC(=O)NS(=O)(=O)OC[C@H]1O[C@@H](n2cnc3c(N)ncnc32)[C@H](O)[C@@H]1O`: the GI50 is 2.92 µM and the TGI was determined as 7.46 µM.
The corresponding values for `COc1cccc(/C=N/NC(=O)c2ccccc2Nc2ccnc(C(F)(F)F)c2)c1O` are 4.06 µM and > 100 µM.
For `Cc1ccc(CS/C(=C\c2ccc([N+](=O)[O-])cc2)C(=O)c2ccc(F)cc2)cc1`, the GI50 was 1.78 µM and the concentration for total growth inhibition (TGI) was 4.26 µM.
For `CN1CCN(Cc2ccc(NC(=O)c3cncc(C#Cc4cnc(N)c5ccc(C#N)cc45)c3)cc2C(F)(F)F)CC1`, in that order: 0.0211 µM and 0.838 µM.
Regarding `CCOC(=O)CCc1cc(=O)oc2cc(O)cc(O)c12`, the TGI was > 100 µM.
With `COC(=O)c1cc2c3ccccc3[nH]c2c2ncccc12`, the GI50 is 59.2 µM and the TGI was > 100 µM.
In turn, `CNC(=O)OCc1c(COC(=O)NC)c(-c2ccc(Cl)c(Cl)c2)n2c1SCC2` registered a TGI of 37.5 µM.

For the next assay, the system named is MDA-MB-435. As to the kind of experiment: DTP human tumour cell line panel, 48 h.
As to `NCC(=O)NS(=O)(=O)OC[C@H]1O[C@@H](n2cnc3c(N)ncnc32)[C@H](O)[C@@H]1O`, the GI50 was 1.84 µM and the total growth inhibition concentration (TGI) was 3.49 µM.
The corresponding values for `COc1cccc(/C=N/NC(=O)c2ccccc2Nc2ccnc(C(F)(F)F)c2)c1O` are 1.26 µM and > 100 µM.
For the molecule `Cc1ccc(CS/C(=C\c2ccc([N+](=O)[O-])cc2)C(=O)c2ccc(F)cc2)cc1`, the GI50 is 2.41 µM and the TGI worked out at 6.49 µM.
For `CN1CCN(Cc2ccc(NC(=O)c3cncc(C#Cc4cnc(N)c5ccc(C#N)cc45)c3)cc2C(F)(F)F)CC1`, in that order: 0.0286 µM and 0.675 µM.
On to `CCOC(=O)CCc1cc(=O)oc2cc(O)cc(O)c12`, for which the TGI is > 100 µM.
With `COC(=O)c1cc2c3ccccc3[nH]c2c2ncccc12`, the GI50 is > 100 µM and the concentration for total growth inhibition (TGI) was > 100 µM.
Consider `CNC(=O)OCc1c(COC(=O)NC)c(-c2ccc(Cl)c(Cl)c2)n2c1SCC2`, for which the total growth inhibition concentration (TGI) came to 33.3 µM.

For a further assay, the system named is NCI/ADR-RES ovarian. As to the kind of experiment: DTP human tumour cell line panel, 48 h.
For `NCC(=O)NS(=O)(=O)OC[C@H]1O[C@@H](n2cnc3c(N)ncnc32)[C@H](O)[C@@H]1O`, the GI50 was 2.53 µM and the concentration for total growth inhibition (TGI) came out at 9.67 µM.
For `COc1cccc(/C=N/NC(=O)c2ccccc2Nc2ccnc(C(F)(F)F)c2)c1O`, the GI50 was 0.512 µM and the TGI is 27.9 µM.
Turning to `Cc1ccc(CS/C(=C\c2ccc([N+](=O)[O-])cc2)C(=O)c2ccc(F)cc2)cc1`, the GI50 is 3.28 µM and the TGI was > 100 µM.
The corresponding values for `CN1CCN(Cc2ccc(NC(=O)c3cncc(C#Cc4cnc(N)c5ccc(C#N)cc45)c3)cc2C(F)(F)F)CC1` are 0.915 µM and 2.03 µM.
Take `CCOC(=O)CCc1cc(=O)oc2cc(O)cc(O)c12`: the concentration for total growth inhibition (TGI) was > 100 µM.
On to `COC(=O)c1cc2c3ccccc3[nH]c2c2ncccc12`, for which the GI50 was 56.2 µM and the concentration for total growth inhibition (TGI) is > 100 µM.
`CNC(=O)OCc1c(COC(=O)NC)c(-c2ccc(Cl)c(Cl)c2)n2c1SCC2` returned a total growth inhibition concentration (TGI) of 40 µM.

The test system of the next assay is RXF 393 renal. As to the kind of experiment: DTP human tumour cell line panel, 48 h.
In the case of `NCC(=O)NS(=O)(=O)OC[C@H]1O[C@@H](n2cnc3c(N)ncnc32)[C@H](O)[C@@H]1O`, the GI50 was 2.11 µM and the TGI came to 4.2 µM.
Turning to `COc1cccc(/C=N/NC(=O)c2ccccc2Nc2ccnc(C(F)(F)F)c2)c1O`, the GI50 was 0.728 µM and the total growth inhibition concentration (TGI) is 28 µM.
The corresponding values for `Cc1ccc(CS/C(=C\c2ccc([N+](=O)[O-])cc2)C(=O)c2ccc(F)cc2)cc1` are 13 µM and 31.8 µM.
For `CN1CCN(Cc2ccc(NC(=O)c3cncc(C#Cc4cnc(N)c5ccc(C#N)cc45)c3)cc2C(F)(F)F)CC1`, in that order: 0.0162 µM and 0.151 µM.
In the case of `CCOC(=O)CCc1cc(=O)oc2cc(O)cc(O)c12`, the total growth inhibition concentration (TGI) was > 100 µM.
As to `COC(=O)c1cc2c3ccccc3[nH]c2c2ncccc12`, the GI50 is > 100 µM and the TGI was > 100 µM.
Regarding `CNC(=O)OCc1c(COC(=O)NC)c(-c2ccc(Cl)c(Cl)c2)n2c1SCC2`, the concentration for total growth inhibition (TGI) came to 13.8 µM.

Another assay has as its system SF-268 CNS. As to the kind of experiment: DTP human tumour cell line panel, 48 h.
Consider `NCC(=O)NS(=O)(=O)OC[C@H]1O[C@@H](n2cnc3c(N)ncnc32)[C@H](O)[C@@H]1O`, for which the GI50 is 0.503 µM and the TGI amounted to 5.65 µM.
For `COc1cccc(/C=N/NC(=O)c2ccccc2Nc2ccnc(C(F)(F)F)c2)c1O`, the GI50 was 0.488 µM and the TGI was > 51.1 µM.
The corresponding values for `Cc1ccc(CS/C(=C\c2ccc([N+](=O)[O-])cc2)C(=O)c2ccc(F)cc2)cc1` are 4.13 µM and 20.7 µM.
For the molecule `CN1CCN(Cc2ccc(NC(=O)c3cncc(C#Cc4cnc(N)c5ccc(C#N)cc45)c3)cc2C(F)(F)F)CC1`, the GI50 was 0.0497 µM and the concentration for total growth inhibition (TGI) was found to be 0.859 µM.
Consider `CCOC(=O)CCc1cc(=O)oc2cc(O)cc(O)c12`, for which the TGI was > 100 µM.
As for `COC(=O)c1cc2c3ccccc3[nH]c2c2ncccc12`, the GI50 was 53.5 µM and the TGI is > 100 µM.
`CNC(=O)OCc1c(COC(=O)NC)c(-c2ccc(Cl)c(Cl)c2)n2c1SCC2` had a total growth inhibition concentration (TGI) of 32.9 µM.

The test system of a further assay is SK-MEL-2 melanoma. As to the kind of experiment: DTP human tumour cell line panel, 48 h.
As for `NCC(=O)NS(=O)(=O)OC[C@H]1O[C@@H](n2cnc3c(N)ncnc32)[C@H](O)[C@@H]1O`, the GI50 was 2.22 µM and the TGI stood at 4.69 µM.
As for `COc1cccc(/C=N/NC(=O)c2ccccc2Nc2ccnc(C(F)(F)F)c2)c1O`, the GI50 was 2.13 µM and the TGI was > 44 µM.
The corresponding values for `Cc1ccc(CS/C(=C\c2ccc([N+](=O)[O-])cc2)C(=O)c2ccc(F)cc2)cc1` are 15.3 µM and 40.5 µM.
In the case of `CN1CCN(Cc2ccc(NC(=O)c3cncc(C#Cc4cnc(N)c5ccc(C#N)cc45)c3)cc2C(F)(F)F)CC1`, the concentration for 50% growth inhibition (GI50) was 0.0217 µM and the TGI was 0.353 µM.
In the case of `CCOC(=O)CCc1cc(=O)oc2cc(O)cc(O)c12`, the concentration for total growth inhibition (TGI) is > 100 µM.
In the case of `COC(=O)c1cc2c3ccccc3[nH]c2c2ncccc12`, the GI50 was > 100 µM and the concentration for total growth inhibition (TGI) is > 100 µM.
The molecule `CNC(=O)OCc1c(COC(=O)NC)c(-c2ccc(Cl)c(Cl)c2)n2c1SCC2` had a TGI of 26.7 µM.

In a further assay the test system is SN12C renal. As to the kind of experiment: DTP human tumour cell line panel, 48 h.
In the case of `NCC(=O)NS(=O)(=O)OC[C@H]1O[C@@H](n2cnc3c(N)ncnc32)[C@H](O)[C@@H]1O`, the GI50 was 0.563 µM and the concentration for total growth inhibition (TGI) stood at 4.6 µM.
The corresponding values for `COc1cccc(/C=N/NC(=O)c2ccccc2Nc2ccnc(C(F)(F)F)c2)c1O` are 0.783 µM and > 73.7 µM.
On to `Cc1ccc(CS/C(=C\c2ccc([N+](=O)[O-])cc2)C(=O)c2ccc(F)cc2)cc1`, for which the GI50 was 2.98 µM and the concentration for total growth inhibition (TGI) worked out at 9.48 µM.
`CN1CCN(Cc2ccc(NC(=O)c3cncc(C#Cc4cnc(N)c5ccc(C#N)cc45)c3)cc2C(F)(F)F)CC1`: the GI50 is 0.0218 µM and the TGI was 0.611 µM.
As to `CCOC(=O)CCc1cc(=O)oc2cc(O)cc(O)c12`, the TGI was > 100 µM.
Take `COC(=O)c1cc2c3ccccc3[nH]c2c2ncccc12`: the GI50 is > 100 µM and the concentration for total growth inhibition (TGI) was > 100 µM.
In turn, `CNC(=O)OCc1c(COC(=O)NC)c(-c2ccc(Cl)c(Cl)c2)n2c1SCC2` returned a TGI of 34 µM.

The test system of another assay is U251 CNS. As to the kind of experiment: DTP human tumour cell line panel, 48 h.
Consider `NCC(=O)NS(=O)(=O)OC[C@H]1O[C@@H](n2cnc3c(N)ncnc32)[C@H](O)[C@@H]1O`, for which the GI50 is 0.555 µM and the TGI stood at 1.98 µM.
The corresponding values for `COc1cccc(/C=N/NC(=O)c2ccccc2Nc2ccnc(C(F)(F)F)c2)c1O` are 0.449 µM and > 100 µM.
The corresponding values for `Cc1ccc(CS/C(=C\c2ccc([N+](=O)[O-])cc2)C(=O)c2ccc(F)cc2)cc1` are 1.67 µM and 3.1 µM.
The corresponding values for `CN1CCN(Cc2ccc(NC(=O)c3cncc(C#Cc4cnc(N)c5ccc(C#N)cc45)c3)cc2C(F)(F)F)CC1` are 0.0235 µM and 0.846 µM.
As for `CCOC(=O)CCc1cc(=O)oc2cc(O)cc(O)c12`, the TGI was > 100 µM.
In the case of `COC(=O)c1cc2c3ccccc3[nH]c2c2ncccc12`, the GI50 was 30.6 µM and the TGI was > 100 µM.
Molecule `CNC(=O)OCc1c(COC(=O)NC)c(-c2ccc(Cl)c(Cl)c2)n2c1SCC2` yielded a concentration for total growth inhibition (TGI) of 22.2 µM.
